# Conditions: for aqueous solubility: pH 6.8
MDR1-MDCK efflux ratio,"intrinsic clearance, human liver microsomes","intrinsic clearance, rat liver microsomes",aqueous solubility,"fraction unbound, human plasma","fraction unbound, rat plasma",SMILES
9.45,129 mL/min/kg,561 mL/min/kg,45.3 µg/mL,–,–,CCCn1cc(C(=O)N2CCC(c3n[nH]cc3C(=O)N(C)Cc3ccccc3)CC2)cn1
0.709,≤ 4.74 mL/min/kg,≤ 10.7 mL/min/kg,17.6 µg/mL,–,–,Cc1cc(C)n2ncc(C(=O)Nc3cccc(C(=O)O)c3)c2n1
0.393,11.8 mL/min/kg,791 mL/min/kg,–,–,–,O=C(Nc1ccccn1)c1ccc2c(c1)C(=O)N(C1CCCCC1)C2=O
–,82.8 mL/min/kg,894 mL/min/kg,3.4 µg/mL,–,–,O=C(Nc1cccc(Cl)c1F)c1cccc(N2CCCC2=O)c1
1.59,119 mL/min/kg,2660 mL/min/kg,–,–,–,CSc1ccc(C(=O)Nc2cccc(C(=O)NCC(C)C)c2)cc1
–,35.3 mL/min/kg,92.3 mL/min/kg,–,–,–,Nc1c(C(=O)NCC2CCCO2)sc(=S)n1-c1ccc(Cl)cc1 (stereo not drawn)
0.862,15.1 mL/min/kg,2130 mL/min/kg,–,–,–,CN1CCC(=C2c3ccccc3CCc3sccc32)CC1
3.87,26.9 mL/min/kg,468 mL/min/kg,19.4 µg/mL,–,–,COc1ccc2nc(C)nc(N3CC(O)(c4ccc(F)cc4)C3)c2c1
1.45,511 mL/min/kg,1010 mL/min/kg,–,–,–,Cc1cncc(CN2CCC(=C3c4ccc(Cl)cc4CCc4cccnc43)CC2)c1
0.869,65.2 mL/min/kg,1790 mL/min/kg,49.7 µg/mL,–,–,Cc1ccc(C2(O)CCN(Cc3cn(C)c4ccc(F)cc34)CC2)cc1
–,14.7 mL/min/kg,233 mL/min/kg,47.8 µg/mL,–,–,O=C(C1CC1c1ccc(F)cc1)N1CCC(n2c(=O)[nH]c3ccccc32)CC1 (stereo not drawn)
3.82,≤ 4.74 mL/min/kg,595 mL/min/kg,46.4 µg/mL,–,–,Cc1nn(-c2ccc(C(=O)O)cc2C#Cc2ccccc2)c(C)c1C
19.9,≤ 4.74 mL/min/kg,20.3 mL/min/kg,70 µg/mL,–,–,CN1CCCN(C(=O)NCCOc2ccc3c(c2)OCO3)CC1
0.446,107 mL/min/kg,1320 mL/min/kg,48 µg/mL,–,–,Cc1oc(C)c(C(=O)NCC#Cc2ccccc2)c1C
–,24.8 mL/min/kg,1090 mL/min/kg,98.7 µg/mL,–,–,CN1CCC[C@@H]1CCO[C@](C)(c1ccccc1)c1ccc(Cl)cc1
0.725,32.6 mL/min/kg,625 mL/min/kg,28.3 µg/mL,–,–,CCc1ccc(-c2nccn2CC(=O)Nc2ccc(C)cc2F)nc1
0.578,11.8 mL/min/kg,546 mL/min/kg,45.8 µg/mL,–,–,Cc1csc(CN(C)c2ccnc(N(C)C)n2)n1
–,–,–,0.9 µg/mL,–,–,COC(=O)c1ccc2c(c1)CCN2S(=O)(=O)c1ccc(Cl)c(C(F)(F)F)c1
–,≤ 4.74 mL/min/kg,16.3 mL/min/kg,–,–,–,Nc1nccc2c1ncn2[C@H]1C=C(CO)[C@@H](O)[C@H]1O

MDR1-MDCK efflux ratio,"intrinsic clearance, human liver microsomes","intrinsic clearance, rat liver microsomes",aqueous solubility,"fraction unbound, human plasma","fraction unbound, rat plasma",SMILES
0.556,≤ 4.74 mL/min/kg,229 mL/min/kg,–,–,–,CC(=O)c1ccc2c(c1)CCN(CC1CCC3(CC1)OCCO3)CC2
3.29,645 mL/min/kg,1910 mL/min/kg,–,–,–,COC(=O)CCCNC(=O)CN1CCC(C(=O)c2ccc(C)cc2C)CC1
67.7,228 mL/min/kg,797 mL/min/kg,45.8 µg/mL,0.048,–,CC(=O)NCCNc1cc(Cl)nn2c(-c3cccc(S(=O)(=O)N(C)C)c3)c(C)nc12
0.614,131 mL/min/kg,3040 mL/min/kg,34.9 µg/mL,–,–,COc1ccc(Cc2ncnn2-c2ccc3c(c2)OCO3)c(OC)c1
0.459,–,–,0.37 µg/mL,–,–,CCCCOc1ccccc1-c1cc(C(=O)NCCc2cccs2)[nH]n1
–,≤ 4.74 mL/min/kg,38.4 mL/min/kg,–,–,–,Cc1noc(C)c1N(C)CCn1cncn1
0.657,≤ 4.74 mL/min/kg,97.1 mL/min/kg,–,–,–,Cc1cccc(C)c1OCCn1nnnc1C
2.35,13.3 mL/min/kg,80.5 mL/min/kg,–,–,–,Fc1ccc(CCNc2ncnc3ncccc23)cc1
–,–,–,7 µg/mL,–,–,Cc1cc(NC(=O)c2ccc(Cl)cc2F)no1
0.487,37.6 mL/min/kg,1020 mL/min/kg,–,–,–,N#Cc1ccc(C(=O)N2CCCO2)nc1
2.44,17.2 mL/min/kg,188 mL/min/kg,50.2 µg/mL,–,–,Cc1cccc(-n2c(S)nnc2CNc2ccc(F)cc2)c1
0.391,127 mL/min/kg,2000 mL/min/kg,26.3 µg/mL,–,–,Cc1ccc2oc([C@H]3CCN(Cc4cccs4)C3)nc2c1
–,986 mL/min/kg,184 mL/min/kg,–,–,–,O=C(COC(=O)c1cc(O)nc2ccccc12)c1ccc(Oc2c(Cl)cccc2[N+](=O)[O-])cc1
0.388,–,–,0.14 µg/mL,–,–,Cc1nc(Nc2ccc(F)cc2)nc2c1ncn2-c1ccc(F)cc1
0.671,17.8 mL/min/kg,281 mL/min/kg,–,–,–,COc1cccc(Cc2cnc(N)s2)c1
72.4,124 mL/min/kg,672 mL/min/kg,–,0.12,0.0823,CN1CCN(S(=O)(=O)c2ccc(-c3cnc(N)c(C(=O)Nc4cccnc4)n3)cc2)CC1
–,53.3 mL/min/kg,373 mL/min/kg,–,–,–,N#CCc1ccc(OCc2ccncc2)cc1
10.6,131 mL/min/kg,2020 mL/min/kg,–,–,–,O=C(CC1c2ccccc2CCc2ccccc21)NCCN1CCOCC1
–,54.7 mL/min/kg,801 mL/min/kg,27 µg/mL,–,–,CNc1nc(N2CCCCC2)nc(N2CCCCC2)n1

MDR1-MDCK efflux ratio,"intrinsic clearance, human liver microsomes","intrinsic clearance, rat liver microsomes",aqueous solubility,"fraction unbound, human plasma","fraction unbound, rat plasma",SMILES
1.45,432 mL/min/kg,3870 mL/min/kg,–,–,–,Cc1ccc(NC(=O)CN(C)C2CCCCC2)cc1S(=O)(=O)N(C)C
0.532,28.5 mL/min/kg,88.6 mL/min/kg,34.8 µg/mL,–,–,COc1ccc2nc(NCc3cnn(C)c3)ccc2c1
–,–,–,11 µg/mL,–,–,NC(=O)Cn1nnc(-c2ccccc2)n1
0.674,11.2 mL/min/kg,73.6 mL/min/kg,71 µg/mL,–,–,COc1cc(CN2CCC(c3ccnc(C)n3)CC2)ccc1F
4.8,12.7 mL/min/kg,171 mL/min/kg,1.1 µg/mL,–,–,CN(C)CCOc1ccc(-c2nc(-c3ccncc3)c(-c3ccc4c(c3)CC/C4=N\O)[nH]2)cc1
0.851,14.5 mL/min/kg,377 mL/min/kg,42.1 µg/mL,–,–,O=C1Nc2ccccc2O[C@H]2C[C@@H]1N(CC1CC1)C2
0.862,14.3 mL/min/kg,1220 mL/min/kg,37.5 µg/mL,–,–,Cc1cc(C)c2c(N(C)CCC(C)C)ncnc2n1
0.646,164 mL/min/kg,1240 mL/min/kg,45.5 µg/mL,–,–,O=C(NCCc1ccc2c(c1)OCO2)N1CCc2sccc2C1
–,–,–,50 µg/mL,–,–,O=C(CN1C(=O)CCC1=O)Nc1ccc(F)c(F)c1F
1.26,≤ 4.74 mL/min/kg,≤ 10.7 mL/min/kg,52.2 µg/mL,–,–,O=C(NCC1CC1)c1cncn1-c1ccc(F)cc1
–,21.3 mL/min/kg,188 mL/min/kg,–,–,–,CCc1nc2ccccc2n1CC(=O)Nc1cnc2ccccc2c1
0.837,≤ 4.74 mL/min/kg,119 mL/min/kg,–,–,–,O=c1c2cccnc2ncn1[C@H]1CCCc2ccccc21
0.592,≤ 4.74 mL/min/kg,≤ 10.7 mL/min/kg,–,–,–,CCn1nccc1CNc1ncccn1
4.41,7.26 mL/min/kg,68.4 mL/min/kg,50.2 µg/mL,–,–,N#Cc1ccc2nc([C@H]3CCN(C4CCC4)C3)[nH]c2c1
1.45,12.1 mL/min/kg,28.3 mL/min/kg,1.35 µg/mL,–,–,Cc1nnc(NC(=O)c2ccccc2-c2ccc(C(F)(F)F)cc2)s1
0.621,229 mL/min/kg,2880 mL/min/kg,–,–,–,Clc1ccc(CSc2nc(-c3ccccc3)c[nH]2)cn1
0.478,–,–,0.3 µg/mL,–,–,COc1ccc(C(C)(C)C)cc1NC(=O)C1(C#N)CCCC1
0.572,102 mL/min/kg,338 mL/min/kg,6.55 µg/mL,–,–,CCOc1ccc(-c2csc(N)n2)cc1
0.825,13.8 mL/min/kg,68 mL/min/kg,33.9 µg/mL,–,–,O=C(COCC1CC1)N1CCCc2ncccc21

SMILES,MDR1-MDCK efflux ratio,"intrinsic clearance, human liver microsomes","intrinsic clearance, rat liver microsomes",aqueous solubility,"fraction unbound, human plasma","fraction unbound, rat plasma"
CCN(CC)C(=O)c1ccc(NC(C)=O)cc1,1.95,≤ 4.74 mL/min/kg,25.6 mL/min/kg,34.6 µg/mL,–,–
CCCc1cc(CNC(=O)N2C[C@H]3C[C@@H](C2)c2cccc(=O)n2C3)on1,16.4,16.6 mL/min/kg,90.4 mL/min/kg,–,–,–

# Source: the Biogen ADME set (Fang et al. 2023)
